# The source made the active and inactive calls. No cut-off for these calls is given here. *1 amine or outer side, *2 acyl side, *3 side chain or, on linkers, in order; H or OH if unused. Where a SMILES comes first, the peptide text is derived from it. Bridges are numbered along the chain shown (N, C = ends). [ ]: non-standard residue; d: D form. The star is where a group is joined. pTerphenylCO(4''-OnC5H11) = CCCCCOc1ccc(-c2ccc(-c3ccc(C(=O)*)cc3)cc2)cc1; Orn(4R-OH,5R-OH) = O=C([C@H](C[C@@H](O)[C@@H](O)N[*:3])N[*:1])[*:2]; hTyr(3S-OH,4S-OH) = N[C@H](C(=O)O)[C@H](O)[C@@H](O)c1ccc(O)cc1; Pro(3S-OH,4S-Me) = C[C@H]1CN[C@H](C(=O)O)[C@H]1O; Hyp = O=C(O)[C@@H]1C[C@@H](O)CN1
# Tests used:
# Candida parapsilosis [1] = assay: Antifungal activity against Candida parapsilosis PA/71 grown as biofilm assessed as 50% reduction in metabolic activity of biofilm after 24 hrs by XTT assay; format: functional; settings: Lodderomyces parapsilosis, PA/71, 24 h
# Candida albicans [2] = assay: Antifungal activity against Candida albicans GDH2346 grown as biofilm assessed as 50% reduction in metabolic activity of biofilm after 24 hrs by XTT assay; format: functional; settings: GDH2346, 24 h
# Candida albicans [3] = assay: Antifungal activity against Candida albicans M61 grown as planktonic cell assessed as minimum drug level required to decrease turbidity by 50% after 24 hrs by CLSI M27-A2 method; format: functional; settings: M61, 24 h
# Candida parapsilosis [4] = assay: Antifungal activity against Candida parapsilosis PA/71 grown as planktonic cell assessed as minimum drug level required to decrease turbidity by 50% after 24 hrs by CLSI M27-A2 method; format: functional; settings: Lodderomyces parapsilosis, PA/71, 24 h
# Candida albicans [5] = assay: Antifungal activity against Candida albicans GDH2346 grown as biofilm assessed as maximum inhibition of biofilm metabolic activity at 8 mg/liter after 24 hrs by XTT assay relative to control; format: functional; settings: GDH2346, 24 h
# Candida albicans [6] = assay: Antifungal activity against Candida albicans GDH2346 grown as planktonic cell assessed as minimum drug level required to decrease turbidity by 50% after 24 hrs by CLSI M27-A2 method; format: functional; settings: GDH2346, 24 h
# Candida albicans [7] = assay: Antifungal activity against Candida albicans M61 grown as biofilm assessed as maximum inhibition of biofilm metabolic activity at 0.5 mg/liter after 24 hrs by XTT assay relative to control; format: functional; settings: M61, 24 h
# Candida albicans [8] = assay: Antifungal activity against Candida albicans M61 grown as biofilm assessed as 50% reduction in metabolic activity of biofilm after 24 hrs by XTT assay; format: functional; settings: M61, 24 h
# Candida albicans [9] = assay: Antifungal activity against Candida albicans M61 grown as biofilm assessed as maximum inhibition of biofilm metabolic activity at 2 mg/liter after 24 hrs by XTT assay relative to control; format: functional; settings: M61, 24 h
# Candida albicans [10] = assay: Antifungal activity against Candida albicans GDH2346 grown as biofilm assessed as 50% reduction in metabolic activity of biofilm at 0.03 mg/liter after 24 hrs by XTT assay; format: functional, organism-based
# Candida albicans [11] = assay: Antifungal activity against Candida albicans M61 grown as biofilm at >2 mg/liter after 24 hrs by XTT assay; format: functional, organism-based
# Candida albicans [12] = assay: Antifungal activity against Candida albicans M61 grown as biofilm assessed as 50% reduction in metabolic activity of biofilm at 0.06 mg/liter after 24 hrs by XTT assay; format: functional, organism-based
# Candida albicans [13] = assay: Antifungal activity against Candida albicans GDH2346 grown as biofilm >2 mg/liter after 24 hrs by XTT assay; format: functional, organism-based
# Candida albicans [14] = assay: Antifungal activity against Candida albicans GDH2346 grown as biofilm assessed as maximum inhibition of biofilm metabolic activity at 2 mg/liter after 24 hrs by XTT assay relative to control; format: functional; settings: GDH2346, 24 h
# Candida parapsilosis [15] = assay: Antifungal activity against Candida parapsilosis PA/71 grown as biofilm >2 mg/liter after 24 hrs by XTT assay; format: functional, organism-based
# Candida albicans [16] = assay: Antifungal activity against Candida albicans GDH2346 grown as biofilm assessed as 50% reduction in metabolic activity of biofilm at 64 mg/liter after 24 hrs by XTT assay; format: functional, organism-based
# Candida parapsilosis [17] = assay: Antifungal activity against Candida parapsilosis PA/71 grown as biofilm assessed as 50% reduction in metabolic activity of biofilm at 64 mg/liter after 24 hrs by XTT assay; format: functional, organism-based
# Candida albicans [18] = assay: Antifungal activity against Candida albicans M61 grown as biofilm assessed as 50% reduction in metabolic activity of biofilm at 64 mg/liter after 24 hrs by XTT assay; format: functional, organism-based
# Candida parapsilosis [19] = assay: Antifungal activity against Candida parapsilosis PA/71 grown as biofilm assessed as 50% reduction in metabolic activity of biofilm at 256 mg/liter after 24 hrs by XTT assay; format: functional, organism-based
# Candida albicans [20] = assay: Antifungal activity against Candida albicans M61 grown as biofilm assessed as 50% reduction in metabolic activity of biofilm at 256 mg/liter after 24 hrs by XTT assay; format: functional, organism-based
# Candida albicans [21] = assay: Antifungal activity against Candida albicans GDH2346 grown as biofilm assessed as 50% reduction in metabolic activity of biofilm at 256 mg/liter after 24 hrs by XTT assay; format: functional, organism-based
smiles,measurement,setting,value
"CCCCCOc1ccc(-c2ccc(-c3ccc(C(=O)N[C@H]4C[C@@H](O)[C@@H](O)NC(=O)[C@@H]5[C@@H](O)[C@@H](C)CN5C(=O)[C@H]([C@@H](C)O)NC(=O)[C@H]([C@H](O)[C@@H](O)c5ccc(O)cc5)NC(=O)[C@@H]5C[C@@H](O)CN5C(=O)[C@H]([C@@H](C)O)NC4=O)cc3)cc2)cc1 [ANIDULAFUNGIN] ({pTerphenylCO(4''-OnC5H11)}-[Orn(4R-OH,5R-OH)]T[Hyp][hTyr(3S-OH,4S-OH)]T[Pro(3S-OH,4S-Me)]; lactam 1-C)",MIC,Candida parapsilosis [1],2 µg/mL
same,MIC,Candida albicans [2],0.12 µg/mL
same,MIC,Candida albicans [3],0.003 µg/mL
same,MIC,Candida parapsilosis [4],0.125 µg/mL
same,inhibition at 8 µg/mL,Candida albicans [5],40%
same,MIC,Candida albicans [6],0.003 µg/mL
same,inhibition at 0.5 µg/mL,Candida albicans [7],40%
same,MIC,Candida albicans [8],0.5 µg/mL
CC[C@H](C)C[C@H](C)CCCCCCCCC(=O)N[C@H]1C[C@@H](O)[C@@H](NCCN)NC(=O)[C@@H]2[C@@H](O)CCN2C(=O)[C@H]([C@H](O)CCN)NC(=O)[C@H]([C@H](O)[C@@H](O)c2ccc(O)cc2)NC(=O)[C@@H]2C[C@@H](O)CN2C(=O)[C@H]([C@@H](C)O)NC1=O [CASPOFUNGIN],MIC,Candida parapsilosis [1],1 µg/mL
same,inhibition at 2 µg/mL,Candida albicans [9],30%
same,MIC,Candida albicans [3],0.06 µg/mL
same,Activity,Candida albicans [10],Active
same,Activity,Candida albicans [11],Active
same,Activity,Candida albicans [12],Active
same,Activity,Candida albicans [13],Active
same,MIC,Candida parapsilosis [4],0.06 µg/mL
same,MIC,Candida albicans [6],0.03 µg/mL
same,inhibition at 2 µg/mL,Candida albicans [14],30%
same,Activity,Candida parapsilosis [15],Active
CC[C@@H]([C@H](C)O)n1ncn(-c2ccc(N3CCN(c4ccc(OC[C@@H]5CO[C@@](Cn6cncn6)(c6ccc(F)cc6F)C5)cc4)CC3)cc2)c1=O [POSACONAZOLE],Activity,Candida albicans [16],inactive
same,MIC,Candida parapsilosis [1],> 256 µg/mL
same,MIC,Candida albicans [3],≤ 0.001 µg/mL
same,Activity,Candida parapsilosis [17],inactive
same,Activity,Candida albicans [18],inactive
same,MIC,Candida parapsilosis [4],0.01 µg/mL
same,MIC,Candida albicans [6],≤ 0.001 µg/mL
C[C@@H](c1ncncc1F)[C@](O)(Cn1cncn1)c1ccc(F)cc1F [VORICONAZOLE],MIC,Candida parapsilosis [1],256 µg/mL
same,MIC,Candida albicans [3],0.01 µg/mL
same,MIC,Candida parapsilosis [4],0.03 µg/mL
same,Activity,Candida parapsilosis [19],inactive
same,Activity,Candida albicans [20],inactive
same,MIC,Candida albicans [6],4 µg/mL
same,Activity,Candida albicans [21],inactive
